For orientation: IC50 means the concentration at which inhibition is half-maximal.

One series deals with T1, A2aR (Homo sapiens, UniProt P29274).
T1 construct: host or cells: CHO
Nature of the series: cAMP accumulation assay (HTRF) in CHO-A2aR cells. The series is classed as cell-based. In general terms: Cyclic AMP is a second messenger, typically raised through Gs and lowered through Gi signalling.

The subject of series [1] is CREB phosphorylation in T cells. Nature of the series: pCREB signaling inhibition assay, ex vivo human whole blood T cells. In kind it is cell-based. Particulars: for IC50: Homo sapiens, T-cell, read-out: IC50, block of CREB phosphorylation in CD4+ T cells; for pCREB at the highest concentration tested: 10 µM antagonist. The method, then:
Whole blood samples from three different healthy donors were collected and seeded in 96-well deep plates at a concentration of 90 µL/well. […] Cells were then lysed and fixed with BD Lyse/Fix Buffer (BD Bioscience, 558,049) for 15 min at 37 °C. After washed twice with DPBS (Hyclone, SH30028.02), the cells were centrifuged at 600 × g for 8 min. Cells were permeabilized by slow addition of BD Phosflow™ Perm Buffer III (BD Bioscience, 55,805) and incubated on ice for 60 min, and then resuspended in DPBS and stained with anti-CD3, anti-CD4, anti-CD8, and anti-pCREB (Ser133) antibodies for 1 h at room temperature in the dark. Cells were then washed twice and acquired on a flow cytometric (BD FACSCanto™ II) with DIVA software (BD Biosciences). The reported pCREB signal is the mean fluorescent intensity (MFI).
For ex vivo pCREB assessment, whole blood samples were collected from healthy donors, plated at 90 µL/well in 96-well deep plates, and pre-incubated with DZD2269 at 37 °C for 30 min.

Series [2] relates to monocyte-derived dendritic cells. Nature of the series: DC maturation assay (CD83). The series is classed as cell-based, human. The following applies: LPS-stimulated iDCs, 10 µM NECA. As to the method:
Monocytes were isolated from human PBMCs using untouched human monocytes kit (Invitrogen, #11350D) according to the manufacturer instruction. Isolated monocytes were cultured with 100 ng/ml GM-CSF (R&D, 215-GM) and 50 ng/ml IL-4 (R&D, 204-IL) supplemented every 2 days. On day 5, 100 ng/ml LPS (Sigma, L4391) was added for 48 h to stimulate DC maturation. […] CD83 was measured as DC maturation marker by flow cytometry, and the gating strategy is shown in supplemental Fig. S2. Data were analyzed with FlowJo software.

Another series relates to activated human PBMCs. Nature of the series: PBMC cytokine release assay (IL-2, IFN-γ, TNF-α). The series is classed as cell-based. The following applies: NECA at 10 µM. As to the method: PBMCs (2 × 10^5 cells/well) were seeded in 96 well plate pre-coated with 10 ng/ml anti-CD3 antibody and stimulated with 20 ng/ml anti-CD28 antibodies to test IFN-γ and IL-2 secretion) or stimulated with 100 ng/ml LPS for TNF-α detection. […] Cell supernatants were collected at 24 h (IL-2 and TNF-α) and 72 h (IFN-γ) post-stimulation. IL-2 (R&D, S2050), IFN-γ (R&D, SIF50) and TNF-α (eBioscience, 88-7346-88) ELISA kits were used for measurement.

In series [3] the test system is CREB phosphorylation in CD3+ T cells. Nature of the series: CREB phosphorylation assay in whole blood. In kind it is cell-based. Particulars: human whole blood, up to 100 µM.
Procedure: Whole blood samples from three different healthy donors were collected and seeded in 96-well deep plates at a concentration of 90 µL/well. […] After washed twice with DPBS (Hyclone, SH30028.02), the cells were centrifuged at 600 × g for 8 min. […] Cells were then washed twice and acquired on a flow cytometric (BD FACSCanto™ II) with DIVA software (BD Biosciences). The reported pCREB signal is the mean fluorescent intensity (MFI).
Details of series [4]: method as in PMID 24835328, PMID 32685154. Particulars: cited from earlier work.
In the next series the test system is Pan02 tumors. Nature of the series: Pan02 pancreatic subcutaneous syngeneic model. The series is classed as in vivo, C57BL/6 mice. Particulars: oxaliplatin 10 mg/kg alone or DZD2269 3 mg/kg alone. As to the method:
B16F10, RM-1 and Pan02 cells were harvested and suspended in DPBS. Single-cell suspensions of greater than 90% viability were used for injection. Tumor cells were injected subcutaneously in the left flank of the C57BL/6 mice with a total cell number of 2 × 10^6 (B16F10 and RM-1) and 1 × 10^7 cells (Pan02) in a volume of 0.1 ml. Tumor-bearing mice were randomized into treatment groups when the mean tumor volume reached 40 to 100 mm^3. Mice were then treated with vehicle or compounds starting the day after randomization, and tumor volume and body weight were measured twice a week. Tumor growth inhibition from the onset of treatment was assessed by comparing the mean change in tumor volume between control and treatment groups and expressed as tumor growth inhibition. Tumor nodules were measured two-dimensionally with calipers, and tumor volumes were calculated using the following formula: tumor volume (TV) = (length × width^2) × 0.52.
Tumor tissues were collected at the end of the study. […] Positive cell percentage of stained IHC slides was quantified with a HALO image analysis platform (Indica Labs).
Fig. 4 DZD2269 enhances the efficacy of radiotherapy (RT) in syngeneic mouse in vivo models. […] (A) IFN-γ in supernatant was measured 72 h after co-culture. (B) IL-2 in supernatant was measured 24 h after co-culture. […] Infiltrated CD8 + and CD4 + T cells were determined by IHC. […]

SMILES strings stand for the structures.

T1 sequence (P29274 whole entry): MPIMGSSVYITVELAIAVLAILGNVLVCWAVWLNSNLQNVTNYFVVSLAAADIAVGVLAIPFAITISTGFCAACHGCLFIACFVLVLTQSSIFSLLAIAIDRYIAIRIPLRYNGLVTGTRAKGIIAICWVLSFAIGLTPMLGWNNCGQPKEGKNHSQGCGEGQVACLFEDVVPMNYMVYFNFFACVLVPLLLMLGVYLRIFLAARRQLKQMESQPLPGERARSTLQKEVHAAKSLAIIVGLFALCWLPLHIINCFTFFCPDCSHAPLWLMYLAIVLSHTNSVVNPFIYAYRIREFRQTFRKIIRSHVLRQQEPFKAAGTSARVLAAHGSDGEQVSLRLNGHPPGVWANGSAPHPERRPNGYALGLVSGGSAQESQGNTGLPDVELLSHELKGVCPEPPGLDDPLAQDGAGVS
Procedure for A2aR: CHO cells stably expressing human adenosine receptors (CHO-A2aR, CHO-A2bR, CHO-A1R and CHO-A3R) were purchased from GenScript. […] All CHO cells were cultured in Ham’s F12K medium (Gibco) with 10% FBS (Gibco) and RM-1 in DMEM (Gibco) medium with 10% FBS. […] All other cells were cultured without antibiotics. All cells were maintained and propagated in a humidified incubator at 37 °C, 5% CO2.
Assays were performed with HTRF cAMP kit (Cisbio, 62AM4PEJ). […] CHO-A2aR and CHO-A2bR cells were seeded in the plates at a density of 5,000 cells/well in F-12 medium containing 10% FBS. […] The dose-response curves were fitted by nonlinear regression using GraphPad Prism.

For `Cc1c(C#N)cccc1-c1cc(-c2cn(Cc3cccc(C(C)(C)O)n3)nn2)nc(N)n1` [AB928], the IC50 at A2aR (stimulated with 0.1 µM NECA) worked out at 4.1 ± 1.2 nM; on A2aR (stimulated with 1 µM adenosine), 3.4 ± 0.92 nM; against A2aR (stimulated with 10 µM NECA) it was 408 ± 25 nM; against A2aR (stimulated with 100 µM adenosine), 463 ± 90 nM; in series [1] it was 130 nM. Also, in series [1] (human whole blood, 10 µM NECA), the “Concentration that brings pCREB to the control level” value is “over 1,000 nM”. In addition, the “Relief of NECA inhibition of DC maturation (CD83)” value in series [2] is on record as “did not relieve the inhibitory effect”.
Consider `Cc1cc(-c2nnc(N)nc2-c2ccc(F)cc2)cc(Cl)n1` [AZD4635], for which the “pCREB at the highest concentration tested” value in series [1] (human whole blood, 10 µM NECA) was “failed to bring pCREB to the baseline (control) level”. Moreover, the IC50 in series [1] is greater than 1000 nM.
In the case of `Cc1ccc(-c2nc(N)nc3c2nnn3Cc2cccc(CO[C@H]3CCOC3)n2)o1` [CPI-444], the “pCREB at the highest concentration tested” value in series [1] (human whole blood, 10 µM NECA) is given as “failed to bring pCREB to the baseline (control) level”. The IC50 in series [1] is greater than 1000 nM.
As for `CCNC(=O)[C@H]1O[C@@H](n2cnc3c(N)ncnc32)[C@H](O)[C@@H]1O` [NECA, 5′-N-ethylcarboxamide adenosine], the “IL-2, IFN-γ and TNF-α production” value with activated human PBMCs is “completely blocked”. Besides, the “CREB phosphorylation in CD3+ T cells” value in series [3] was “stimulated CREB phosphorylation in a concentration dependent manner”.
Consider `Nc1ncnc2c1ncn2[C@@H]1O[C@H](CO)[C@@H](O)[C@H]1O` [adenosine], for which the “Biological half-life in human blood” value in series [4] is “less than 10 s”.
`O=C1[O][Pt]2([NH][C@@H]3CCCC[C@H]3[NH]2)[O]C1=O` [oxaliplatin, Oxaliplatin]: the “Anti-tumor effect, single agent” value in the series on Pan02 tumors is “showed some anti-tumor effect”.

Source of the values: publication PMC9563815, “Overcoming high level adenosine-mediated immunosuppression by DZD2269, a potent and selective A2aR antagonist” (Journal of Experimental & Clinical Cancer Research : CR, 2022).
